Several values for one entry are separate records, joined by “and”; a condition that tells them apart may be missing. Equal entries are not always repeated. Where two headings read alike, the source gives them in different places.
How the values were obtained:
[1] = in vivo; settings: mouse, ip, LD50, intraperitoneal, once a day, 7 days, mice
[2] = test system: Enrlich carcinoma; assay: Antineoplastic activity against Enrlich carcinoma (life prolongation rate); format: in vivo, 5-week-old ICR mice (male); design: response vs control in vivo: dose or concentration left out as unconfirmed; settings: for response vs control in vivo at 2 mg/kg / response vs control in vivo at 4 mg/kg / response vs control in vivo at 8 mg/kg / response vs control in vivo at 16 mg/kg / response vs control in vivo / response vs control in vivo at 1 mg/kg: Mus musculus, ip, 1440 h, read-out: Life prolongation rate (T/C %); for response vs control in vivo at 1 mg/kg: 1.0 mg/kg/day
Description: Approximately 10^6 cells/0.2 ml of Enrlich carcinoma were inoculated into the abdominal cavity of each of the 5-week-old ICR mice (male) used for the test, and the test compounds were administered intraperitoneally to the mice of the treated group once a day for a period of 7 days, starting from the day after said inoculation. The mice of the control group was administered with a saline solution in the same way. Observation of the animals of both groups was continued for 60 days after the administration, and the life prolongation rate (T/C%, T/C×100) was determined from the average duration (days) of life of the mice of the treated group (T) and that of the mice of the control group (C).

[3] = 2.0 mg/kg/day, intraperitoneal, once a day, 7 days
[4] = 8.0 mg/kg/day, intraperitoneal, once a day, 7 days
[5] = […], intraperitoneal, (Note 1) administered for 4 days
[6] = intraperitoneal, once a day, 7 days
[7] = […], intraperitoneal, once a day, 7 days
[8] = […], intraperitoneal, (Note 2) administered for 2 days

c1ccncc1 [Compound 1-1, Selenium oxybromide-pyridine (1:2) complex]
LD50 [1]: 8 to 16 mg/kg | Life prolongation rate (T/C %) ([2]; mouse, in vivo): 165% and 173% and 181% and 130%

Cc1ccccn1 [Compound 1-2, Selenium oxychloride-2-picoline (1:2) complex]
LD50 [1]: 8 to 16 mg/kg | response vs control in vivo at 2 mg/kg [2]: 176% | response vs control in vivo at 4 mg/kg [2]: 169% | response vs control in vivo at 8 mg/kg [2]: 194% | response vs control in vivo at 16 mg/kg [2]: 75%

CCc1ccncc1 [Compound 1-6, Selenium oxychloride-4-ethylpyridine (1:2) complex]
LD50 [1]: 8 to 16 mg/kg | response vs control in vivo at 2 mg/kg [2, 3]: 173% | response vs control in vivo at 8 mg/kg [2, 4]: 244% | response vs control in vivo at 16 mg/kg [2, 5]: 103% | response vs control in vivo [2, 6]: 209%

CC(C)c1ccncc1 [Compound 1-7, Selenium oxychloride-4-isopropylpyridine (1:2) complex]
LD50 [1]: 8 to 16 mg/kg | response vs control in vivo at 8 mg/kg [2, 4]: 256% | response vs control in vivo at 16 mg/kg [2, 5]: 201% | response vs control in vivo [2, 6]: 222%

c1ccc(-c2cccnc2)cc1 [Compound 1-10, Selenium oxychloride-3-phenylpyridine (1:2) complex]
LD50 [1]: > 16 mg/kg | response vs control in vivo at 2 mg/kg [2, 3]: 251% | response vs control in vivo at 8 mg/kg [2, 4]: 203% | response vs control in vivo at 16 mg/kg [2, 7]: 199% | response vs control in vivo [2, 6]: 192%

c1ccc(-c2ccncc2)cc1 [Compound 1-11, Selenium oxychloride-4-phenylpyridine (1:2) complex]
LD50 [1]: > 16 mg/kg | response vs control in vivo at 2 mg/kg [2, 3]: 166% | response vs control in vivo at 8 mg/kg [2, 4]: 230% | response vs control in vivo at 16 mg/kg [2, 7]: 221%

Fc1cccnc1 [Compound 1-12, Selenium oxychloride-3-fluoropyridine (1:2) complex]
LD50 [1]: 8 to 16 mg/kg | response vs control in vivo at 2 mg/kg [2, 3]: 194% | response vs control in vivo at 8 mg/kg [2, 4]: 201% | response vs control in vivo at 16 mg/kg [2, 8]: 140% | response vs control in vivo [2, 6]: 219%

Clc1cccnc1 [Compound 1-13, Selenium oxychloride-3-chloropyridine (1:2) complex]
LD50 [1]: 8 to 16 mg/kg | response vs control in vivo at 2 mg/kg [2]: 142% | response vs control in vivo at 4 mg/kg [2]: 172% | response vs control in vivo at 8 mg/kg [2]: 158% | response vs control in vivo at 16 mg/kg [2]: 84%

Brc1cccnc1 [Compound 1-14, Selenium oxychloride-3-bromopyridine (1:2) complex]
LD50 [1]: 8 to 16 mg/kg | response vs control in vivo at 2 mg/kg [2, 3]: 163% | response vs control in vivo at 8 mg/kg [2, 4]: 202% | response vs control in vivo at 16 mg/kg [2, 5]: 147% | response vs control in vivo [2, 6]: 179%

Clc1cncc(Cl)c1 [Compound 1-15, Selenium oxychloride-3,5-dichlorpyridine (1:2) complex]
LD50 [1]: 8 to 16 mg/kg | response vs control in vivo at 2 mg/kg [2, 3]: 154% | response vs control in vivo at 8 mg/kg [2, 4]: 191% | response vs control in vivo at 16 mg/kg [2, 5]: 162% | response vs control in vivo [2, 6]: 174%

Cn1cncc1Br [Compound 1-28, Selenium oxychloride-1-methyl-5-bromoimidazole (1:2) complex]
LD50 [1]: > 16 mg/kg | response vs control in vivo at 8 mg/kg [2, 4]: 215% | response vs control in vivo at 16 mg/kg [2, 5]: 264% | response vs control in vivo [2, 6]: 217%

Cn1c(=O)c2c(ncn2Cc2ccccc2)n(C)c1=O [Compound 1-33, Selenium oxychloride-N--benzyltheophylline (1:2) complex]
LD50 [1]: > 16 mg/kg | response vs control in vivo at 2 mg/kg [2, 3]: 138% | response vs control in vivo at 8 mg/kg [2, 4]: 214% | response vs control in vivo at 16 mg/kg [2, 7]: 205%

Cn1cnc2c1c(=O)n(Cc1ccccc1)c(=O)n2C [Compound 1-34, Selenium oxychloride-N--benzyltheobromine (1:2) complex]
LD50 [1]: > 16 mg/kg | response vs control in vivo at 2 mg/kg [2, 3]: 122% | response vs control in vivo at 8 mg/kg [2, 4]: 187% | response vs control in vivo at 16 mg/kg [2, 7]: 190% | response vs control in vivo [2, 6]: 159%

O=P(c1ccccc1)(c1ccccc1)c1ccccc1 [Compound 1-36, Selenium oxycloride-triphenylphosphine oxide (1:2) complex]
LD50 [1]: > 16 mg/kg | response vs control in vivo at 2 mg/kg [2, 3]: 155% | response vs control in vivo at 16 mg/kg [2, 7]: 197% | response vs control in vivo [2, 6]: 186%

N#Cc1cccnc1 [Compound 2-7, Tetrachloroselenium-3-cyanopyridine (1:2) complex]
LD50 [1]: 8 to 16 mg/kg | response vs control in vivo at 2 mg/kg ([2]; 2.0 mg/kg/day, intraperitoneal, 7 days, solvent used: DMSO): 201% | response vs control in vivo at 8 mg/kg ([2]; 8.0 mg/kg/day, intraperitoneal, 7 days, solvent used: DMSO): 214% | response vs control in vivo at 16 mg/kg ([2]; […], intraperitoneal, 7 days, solvent used: DMSO): 67% | response vs control in vivo ([2]; intraperitoneal, 7 days, solvent used: DMSO): 243%

CC(Cl)C(C)O[Se](=O)OC(C)C(C)Cl (stereo not drawn) [Compound 3-1, Di-(2-chloro-1-methylpropyl)-selenite]
LD50 [1]: 8 to 16 mg/kg | response vs control in vivo at 2 mg/kg [2, 3]: 177% | response vs control in vivo at 8 mg/kg [2, 4]: 193% | response vs control in vivo at 16 mg/kg [2, 7]: 90% | response vs control in vivo [2, 6]: 179%

CC(C)(Cl)CO[Se](=O)OCC(C)(C)Cl [Compound 3-2, Di-(2-chloro-2-methylpropyl)-selenite]
LD50 [1]: 8 to 16 mg/kg | response vs control in vivo at 2 mg/kg [2, 3]: 178% | response vs control in vivo at 8 mg/kg [2, 4]: 207% | response vs control in vivo at 16 mg/kg [2, 8]: 63% | response vs control in vivo [2, 6]: 232%

CCC(Cl)CO[Se](=O)OCC(Cl)CC (stereo not drawn) [Compound 3-3, Di-(2-chlorobutyl)selenite]
LD50 [1]: > 8 mg/kg | response vs control in vivo at 1 mg/kg [2, 6]: 172% | response vs control in vivo at 2 mg/kg [2, 3]: 205% | response vs control in vivo at 8 mg/kg [2, 4]: 212% | response vs control in vivo [2, 6]: 230%

CCCCCCC(Cl)CO[Se](=O)OCC(Cl)CCCCCC (stereo not drawn) [Compound 3-4, Di-(2-chlorooctyl)selenite]
LD50 [1]: 8 to 16 mg/kg | response vs control in vivo at 2 mg/kg [2, 3]: 156% | response vs control in vivo at 8 mg/kg [2, 4]: 180% | response vs control in vivo at 16 mg/kg [2, 5]: 53% | response vs control in vivo [2, 6]: 208%

O=[Se](OCC(Cl)c1ccccc1)OCC(Cl)c1ccccc1 (stereo not drawn) [Compound 3-5]
LD50 [1]: > 16 mg/kg | response vs control in vivo at 2 mg/kg [2, 3]: 154% | response vs control in vivo at 8 mg/kg [2, 4]: 223% | response vs control in vivo at 16 mg/kg ([2]; […], intraperitoneal, (Note 5) administered for 6 days): 167% | response vs control in vivo [2, 6]: 194%

O=[Se](OC1CCCCC1Cl)OC1CCCCC1Cl (stereo not drawn) [Compound 3-6, Di-(2-chlorcyclohexyl)selenite]
LD50 [1]: 8 to 16 mg/kg | response vs control in vivo at 2 mg/kg [2, 3]: 210% | response vs control in vivo at 8 mg/kg [2, 4]: 253% | response vs control in vivo at 16 mg/kg ([2]; […], intraperitoneal, (Note 3) administered for 3 days): 95% | response vs control in vivo [2, 6]: 216%

O=[Se](OC1C2CCC(C2)C1Cl)OC1C2CCC(C2)C1Cl (stereo not drawn) [Compound 3-7, Di-(3-chloronorbonyl-2-il)selenite]
LD50 [1]: 8 to 16 mg/kg | response vs control in vivo at 2 mg/kg [2, 3]: 143% | response vs control in vivo at 8 mg/kg [2, 4]: 201% | response vs control in vivo at 16 mg/kg [2, 5]: 119% | response vs control in vivo [2, 6]: 148%

CCC1CO[Se](=O)O1 (stereo not drawn) [Compound 3-8, 1,2-butanediolselenite]
LD50 [1]: > 8 mg/kg | response vs control in vivo at 1 mg/kg [2, 6]: 208% | response vs control in vivo at 2 mg/kg [2, 3]: 250% | response vs control in vivo at 8 mg/kg [2, 4]: 212% | response vs control in vivo [2, 6]: 194%

CCC1(CC)CO[Se](=O)OC1 [Compound 3-9, 2,2-diethyl-1,3-propanediolselenite]
LD50 [1]: > 16 mg/kg | response vs control in vivo at 2 mg/kg [2, 3]: 152% | response vs control in vivo at 8 mg/kg [2, 4]: 223% | response vs control in vivo at 16 mg/kg [2, 7]: 194% | response vs control in vivo [2, 6]: 204%

CN(C)c1ccncc1 [Compound 3-12, Selenium oxychloride-4-dimethylaminopyridine (1:2) complex]
LD50 [1]: > 16 mg/kg | response vs control in vivo at 2 mg/kg [2]: 169% | response vs control in vivo at 4 mg/kg [2]: 183% | response vs control in vivo at 8 mg/kg [2]: 232% | response vs control in vivo at 16 mg/kg [2]: 190%

From patent US4824955A, “Selenium oxy chloride-pyridine or bipyridine complexes” (Nippon Kayaku Kabushiki Kaisha, priority 1985, dated 1989)
